Counter-ions that a name gives are not always drawn. Some results are limits rather than exact numbers.

In the assay the target is T1, AR (Homo sapiens, UniProt P10275).
T1 construct: endogenous in cells; host or cells: VCaP cells
T1 sequence (P10275 1-920): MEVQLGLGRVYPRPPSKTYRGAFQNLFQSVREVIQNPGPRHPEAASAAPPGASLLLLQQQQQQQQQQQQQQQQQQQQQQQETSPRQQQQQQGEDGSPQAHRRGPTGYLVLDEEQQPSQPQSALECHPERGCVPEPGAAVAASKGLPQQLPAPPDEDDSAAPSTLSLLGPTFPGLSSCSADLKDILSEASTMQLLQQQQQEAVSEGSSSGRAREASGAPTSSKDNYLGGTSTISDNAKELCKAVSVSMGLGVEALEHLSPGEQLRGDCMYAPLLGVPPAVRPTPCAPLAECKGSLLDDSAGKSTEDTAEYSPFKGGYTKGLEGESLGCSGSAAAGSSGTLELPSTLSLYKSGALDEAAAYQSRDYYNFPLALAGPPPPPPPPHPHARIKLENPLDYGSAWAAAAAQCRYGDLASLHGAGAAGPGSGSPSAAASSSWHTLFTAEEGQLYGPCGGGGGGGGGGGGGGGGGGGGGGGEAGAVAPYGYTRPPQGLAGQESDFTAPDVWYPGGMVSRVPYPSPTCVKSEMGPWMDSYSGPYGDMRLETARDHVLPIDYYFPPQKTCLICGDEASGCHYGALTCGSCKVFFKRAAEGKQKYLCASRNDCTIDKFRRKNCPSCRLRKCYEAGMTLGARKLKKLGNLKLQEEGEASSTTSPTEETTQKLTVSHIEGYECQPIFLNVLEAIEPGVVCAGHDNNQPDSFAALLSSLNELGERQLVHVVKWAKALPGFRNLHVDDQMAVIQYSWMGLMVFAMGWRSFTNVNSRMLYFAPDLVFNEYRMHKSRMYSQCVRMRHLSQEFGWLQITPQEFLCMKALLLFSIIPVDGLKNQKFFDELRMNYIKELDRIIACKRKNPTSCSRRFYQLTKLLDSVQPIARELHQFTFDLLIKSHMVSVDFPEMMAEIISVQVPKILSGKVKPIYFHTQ
Briefly: VCAP AR Degradation Assay. Particulars: VCaP cells, 24 h; for DC50: AR ELISA, concentration when AR level = 50% of DMSO control; for Ymin: lowest AR level normalized to DMSO control. It counts as cell-based. As for the experimental part:
VCAP AR Degradation Assay. Test compounds were pre-dispensed into a Corning CellBind 96-well clear bottom plate (Cat #3300) using an acoustic dispenser to make a 10-point concentration series at 1:3 dilution for each compound. The final top concentration of each compound was 5 μM. DMSO at a final concentration of 0.1% was used as a control. VCaP cells cultured in DMEM with 8% fetal bovine serum (FBS) were seeded at 50K cells per well in a 200 μL volume into the compound plate and incubated at 37° C. in a C02 incubator for 24 h. The medium was carefully removed from the cells and the plate was placed on ice. One hundred μL of ice-cold 1× cell lysis buffer from Cell Signaling Technologies (Cat #9803) was added to each well of the cells and the plate was incubated at 4° C. on a shaker for 1 h. Fifteen μL of cell lysate was used for AR ELISA detection using a PathScan Total Sandwich AR ELISA kit (Cell Signaling Technology, Cat #12580). AR levels in compound-treated wells were normalized to that of DMSO control and expressed as percent of control (PoC) (y). A Four Parameter Logistic Model (Sigmoidal Dose-Response Model) was used to determine the compound's DC50, and EC50, using the following equation: […]
The lowest measured AR level normalized to DMSO control in response to compound treatment, termed Y value, was used to characterize the compound-mediated AR degradation efficiency.

A word on the DC50: it is the midpoint of the concentration-degradation curve. Read a high DC50 as degradation only at high concentration. As for `C[C@@H]1C[C@@H](CCO[C@H]2CC[C@H](N3C(=S)N(c4ccc(C#N)c(C(F)(F)F)c4)C(=O)C3(C)C)CC2)C[C@H](C)N1CC(=O)Nc1ccc(C2CCC(=O)NC2=O)cc1` (stereo partly drawn) [Cmpd 21, 2-((2R,4s,6S)-4-(2-((trans-4-(3-(4-Cyano-3-(trifluoromethyl)phenyl)-5,5-dimethyl-4-oxo-2-thioxoimidazolidin-1-yl)cyclohexyl)oxy)ethyl)-2,6-dimethylpiperidin-1-yl)-N-(4-(2,6-dioxopiperidin-3-yl)phenyl)acetamide hydrochloride], the DC50 was at most 5 nM. Moreover, for the setting “class symbols”, the Ymin result is “* (0<Y≤20%)”.

On to `C[C@@H]1CN(CCC[C@H]2CC[C@H](N3C(=S)N(c4ccc(C#N)c(C(F)(F)F)c4)C(=O)C3(C)C)CC2)C[C@H](C)N1CC(=O)Nc1ccc(C2CCC(=O)NC2=O)cc1` (stereo partly drawn) [Cmpd 3, 2-((2R,6S)-4-(3-(trans-4-(3-(4-Cyano-3-(trifluoromethyl)phenyl)-5,5-dimethyl-4-oxo-2-thioxoimidazolidin-1-yl)cyclohexyl)propyl)-2,6-dimethylpiperazin-1-yl)-N-(4-(2,6-dioxopiperidin-3-yl)phenyl)acetamide hydrochloride], for which the DC50 is 5 to 15 nM. In addition, the Ymin entry (class symbols) is recorded as “** (20%<Y≤30%)”.

`C[C@@H]1CN(CCO[C@H]2CC[C@H](N3C(=S)N(c4ccc(C#N)c(C(F)(F)F)c4)C(=O)C3(C)C)CC2)C[C@H](C)N1CC(=O)Nc1ccc(C2(C)CCC(=O)NC2=O)cc1` (single isomer, unassigned) [Cmpd 10, hydrochloride] showed a DC50 of 100 to 10000 nM. In addition, the Ymin result (class symbols) is on record as “*** (30%<Y<80%)”.

In turn, `CC1(C)C(=O)N(c2ccc(C#N)c(C(F)(F)F)c2)C(=S)N1[C@H]1CC[C@H](OCCCN2CCN(CC(=O)Nc3cccc(C4CCC(=O)NC4=O)c3)[C@@H](C(F)(F)F)C2)CC1` (stereo partly drawn) [Cmpd 31, 2-((R)-4-(3-(((trans)-4-(3-(4-Cyano-3-(trifluoromethyl)phenyl)-5,5-dimethyl-4-oxo-2-thioxoimidazolidin-1-yl)cyclohexyl)oxy)propyl)-2-(trifluoromethyl)piperazin-1-yl)-N-(3-(2,6-dioxopiperidin-3-yl)phenyl)acetamide] returned a DC50 of at most 5 nM. For the same compound, for the setting “given as numbers”, the Ymin is given as 21 % of DMSO control.

For the compound `CC1(C)C(=O)N(c2ccc(C#N)c(C(F)(F)F)c2)C(=S)N1[C@H]1CC[C@H](OCCCN2CCN(CC(=O)Nc3ccc(C4CCC(=O)NC4=O)cc3)[C@@H](C(F)(F)F)C2)CC1` (stereo partly drawn) [Cmpd 35, 2-((R)-4-(3-(((trans)-4-(3-(4-Cyano-3-(trifluoromethyl)phenyl)-5,5-dimethyl-4-oxo-2-thioxoimidazolidin-1-yl)cyclohexyl)oxy)propyl)-2-(trifluoromethyl)piperazin-1-yl)-N-(4-(2,6-dioxopiperidin-3-yl)phenyl)acetamide], the DC50 was at most 5 nM. Besides, the Ymin (given as numbers) was 21 % of DMSO control.

Turning to `CC[C@@]1(c2ccc(NC(=O)CN3[C@H](C)CN(CCO[C@H]4CC[C@H](N5C(=S)N(c6ccc(C#N)c(C(F)(F)F)c6)C(=O)C5(C)C)CC4)C[C@@H]3C)cc2)CCC(=O)NC1=O` [Cmpd 8, 2-((2S,6R)-4-(2-((trans-4-(3-(4-Cyano-3-(trifluoromethyl)phenyl)-5,5-dimethyl-4-oxo-2-thioxoimidazolidin-1-yl)cyclohexyl)oxy)ethyl)-2,6-dimethylpiperazin-1-yl)-N-(4-((S)-3-ethyl-2,6-dioxopiperidin-3-yl)phenyl)acetamide hydrochloride], the DC50 was 100 to 10000 nM. Further, where the note is “class symbols”, the Ymin result is on record as “*** (30%<Y<80%)”.

On to `C[C@@H]1C[C@H](OCC[C@H]2CC[C@H](N3C(=S)N(c4ccc(C#N)c(C(F)(F)F)c4)C(=O)C3(C)C)CC2)C[C@H](C)N1CC(=O)Nc1ccc(C2CCC(=O)NC2=O)cc1` (stereo partly drawn) [Cmpd 40, 2-((2R,4r,6S)-4-(2-((trans)-4-(3-(4-Cyano-3-(trifluoromethyl)phenyl)-5,5-dimethyl-4-oxo-2-thioxoimidazolidin-1-yl)cyclohexyl)ethoxy)-2,6-dimethylpiperidin-1-yl)-N-(4-(2,6-dioxopiperidin-3-yl)phenyl)acetamide], for which the DC50 is 5 to 15 nM. Where the note is “given as numbers”, the Ymin is given as 21 % of DMSO control.

As for `C[C@@H]1CN(CCCC[C@H]2CC[C@H](N3C(=S)N(c4ccc(C#N)c(C(F)(F)F)c4)C(=O)C3(C)C)CC2)C[C@H](C)N1CC(=O)Nc1cccc(C2CCC(=O)NC2=O)c1` (stereo partly drawn) [Cmpd 24, 2-((2R,6S)-4-(4-((trans)-4-(3-(4-Cyano-3-(trifluoromethyl)phenyl)-5,5-dimethyl-4-oxo-2-thioxoimidazolidin-1-yl)cyclohexyl)butyl)-2,6-dimethylpiperazin-1-yl)-N-(3-(2,6-dioxopiperidin-3-yl)phenyl)acetamide], the DC50 is at most 5 nM. The Ymin (given as numbers) is 15 % of DMSO control.

Take `C[C@@H]1CN(CCCC[C@H]2CC[C@H](N3C(=S)N(c4ccc(C#N)c(C(F)(F)F)c4)C(=O)C3(C)C)CC2)C[C@H](C)N1CC(=O)Nc1ccc(C2CCC(=O)NC2=O)cc1` (stereo partly drawn) [Cmpd 30, 2-((2R,6S)-4-(4-((trans)-4-(3-(4-Cyano-3-(trifluoromethyl)phenyl)-5,5-dimethyl-4-oxo-2-thioxoimidazolidin-1-yl)cyclohexyl)butyl)-2,6-dimethylpiperazin-1-yl)-N-(4-(2,6-dioxopiperidin-3-yl)phenyl)acetamide]: the DC50 was at most 5 nM. Moreover, for the setting “given as numbers”, the Ymin was 20 % of DMSO control.

In the case of `C[C@@H]1C[C@H](OCCC[C@H]2CC[C@H](N3C(=S)N(c4ccc(C#N)c(C(F)(F)F)c4)C(=O)C3(C)C)CC2)C[C@H](C)N1CC(=O)Nc1ccc(C2CCC(=O)NC2=O)cc1` (stereo partly drawn) [Cmpd 37, 2-((2R,4r,6S)-4-(3-((trans)-4-(3-(4-Cyano-3-(trifluoromethyl)phenyl)-5,5-dimethyl-4-oxo-2-thioxoimidazolidin-1-yl)cyclohexyl)propoxy)-2,6-dimethylpiperidin-1-yl)-N-(4-(2,6-dioxopiperidin-3-yl)phenyl)acetamide], the DC50 was 15 to 100 nM. Besides, the Ymin (given as numbers) is listed as 19 % of DMSO control.

In turn, `CC1(C)C(=O)N(c2ccc(C#N)c(C(F)(F)F)c2)C(=S)N1[C@H]1CC[C@H](CCCN2CCN(CC(=O)Nc3ccc(C4CCC(=O)NC4=O)cc3)[C@@H](C(F)(F)F)C2)CC1` (stereo partly drawn) [Cmpd 36, 2-((R)-4-(3-((trans)-4-(3-(4-Cyano-3-(trifluoromethyl)phenyl)-5,5-dimethyl-4-oxo-2-thioxoimidazolidin-1-yl)cyclohexyl)propyl)-2-(trifluoromethyl)piperazin-1-yl)-N-(4-(2,6-dioxopiperidin-3-yl)phenyl)acetamide] yielded a DC50 of 15 to 100 nM. For the same compound, the Ymin (given as numbers) is 24 % of DMSO control.

Turning to `C[C@@H]1CN(CCO[C@H]2CC[C@H](N3C(=S)N(c4ccc(C#N)c(C(F)(F)F)c4)C(=O)C3(C)C)CC2)C[C@H](C)N1CC(=O)Nc1ccc(C2(C)CCC(=O)NC2=O)cc1` (single isomer, unassigned) [Cmpd 9, hydrochloride], the DC50 lay in the range of 100 to 10000 nM. Further, the Ymin entry (class symbols) is “*** (30%<Y<80%)”.

On to `CC1(C)C(=O)N(c2cnc(C#N)c(C(F)(F)F)c2)C(=S)N1[C@H]1CC[C@H](CCCN2CCN(CC(=O)Nc3ccc(C4CCC(=O)NC4=O)cc3)[C@@H](C(F)(F)F)C2)CC1` (stereo partly drawn) [Cmpd 33, 2-((R)-4-(3-((trans)-4-(3-(6-Cyano-5-(trifluoromethyl)pyridin-3-yl)-5,5-dimethyl-4-oxo-2-thioxoimidazolidin-1-yl)cyclohexyl)propyl)-2-(trifluoromethyl)piperazin-1-yl)-N-(4-(2,6-dioxopiperidin-3-yl)phenyl)acetamide], for which the DC50 lay in the range of 5 to 15 nM. For the same compound, the Ymin (given as numbers) is 17 % of DMSO control.

Values taken from patent US20240368118A1, “CEREBLON BINDING COMPOUNDS, COMPOSITIONS THEREOF, AND METHODS OF TREATMENT THEREWITH” (CELGENE CORPORATION, priority 2021, published 2024).
